In patent US12522594B2, “2-heteroaryl-3-oxo-2,3-dihydropyridazine-4-carboxamides for the treatment of cancer” (Deutsches Krebsforschungszentrum, priority 2017, dated 2026):

Key:
[1] = target: T1, AHR (Homo sapiens, UniProt P35869); experiment: In vitro assay 2: agonism in human cell line (transactivation assay, U87 cells, DRE firefly luciferase reporter); format: cell-based; parameters: host or cells: U87 glioblastoma cells, stably transfected with DRE firefly luciferase and renilla reporter constructs; settings: no kynurenic acid, 20 hours, read-out: Assay 2: AHR-luc Hum Agonism IC50
T1 sequence (P35869 11-848): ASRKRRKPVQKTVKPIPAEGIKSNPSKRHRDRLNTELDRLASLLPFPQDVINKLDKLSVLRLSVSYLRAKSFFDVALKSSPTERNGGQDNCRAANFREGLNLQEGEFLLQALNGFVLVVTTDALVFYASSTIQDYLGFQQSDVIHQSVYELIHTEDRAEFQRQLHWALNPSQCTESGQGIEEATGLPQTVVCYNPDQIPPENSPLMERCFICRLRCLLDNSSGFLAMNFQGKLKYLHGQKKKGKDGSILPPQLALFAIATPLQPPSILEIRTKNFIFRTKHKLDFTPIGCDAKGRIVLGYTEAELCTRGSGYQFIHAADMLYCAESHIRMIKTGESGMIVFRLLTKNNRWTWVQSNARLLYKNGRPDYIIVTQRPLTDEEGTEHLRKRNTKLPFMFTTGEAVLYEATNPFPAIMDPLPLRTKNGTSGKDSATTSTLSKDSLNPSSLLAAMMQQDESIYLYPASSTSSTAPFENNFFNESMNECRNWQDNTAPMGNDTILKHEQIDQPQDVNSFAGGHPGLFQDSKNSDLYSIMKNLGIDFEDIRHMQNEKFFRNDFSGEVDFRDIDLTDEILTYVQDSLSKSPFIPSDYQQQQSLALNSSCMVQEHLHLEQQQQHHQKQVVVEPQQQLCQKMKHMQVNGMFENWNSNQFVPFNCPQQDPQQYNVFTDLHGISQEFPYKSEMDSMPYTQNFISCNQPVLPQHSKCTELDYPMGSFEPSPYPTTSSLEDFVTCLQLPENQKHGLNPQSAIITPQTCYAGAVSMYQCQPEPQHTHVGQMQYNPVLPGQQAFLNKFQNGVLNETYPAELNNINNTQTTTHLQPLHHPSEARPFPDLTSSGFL
Summary of the method: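 U87 glioblastoma cells with endogenous AHR, stably carrying DRE-driven firefly luciferase and constitutive renilla reporters. 300 uM kynurenic acid served as positive activation control; data normalized to positive and negative controls.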

[2] = target: T1, AHR; experiment: In vitro assay 1: antagonism in human cell line (transactivation assay, U87 cells prestimulated with kynurenic acid, DRE firefly luciferase reporter); format: cell-based; parameters: host or cells: U87 glioblastoma cells, stably transfected with DRE firefly luciferase and renilla reporter constructs; settings: 150 uM kynurenic acid, 20 hours, read-out: Assay 1: AHR-luc Hum Antagonism IC50
Summary of the method: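 U87 glioblastoma cells with endogenous AHR, stably carrying a DRE-driven firefly luciferase reporter and a constitutive renilla reporter. Cells prestimulated with the AHR agonist kynurenic acid before compound addition; data normalized to positive and negative controls.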

IC50 [1] [nM] | IC50 [2] [nM] | SMILES
> 20000 | 133 | C[C@@H](CO)NC(=O)c1cc(-c2ccc(Cl)cc2)nn(-c2cncc(Cl)c2)c1=O [Example 303, 6-(4-Chlorophenyl)-2-(5-chloropyridin-3-yl)-N-[(2S)-1-hydroxypropan-2-yl]-3-oxo-2,3-dihydropyridazine-4-carboxamide]
> 20000 | 60.4 | O=C(N[C@@H]1COC[C@@H]1O)c1cc(-c2ccc(C(F)F)cc2)nn(-c2cccnc2)c1=O (relative stereo) [Example 323, 6-[4-(Difluoromethyl)phenyl]-N-[(cis)-4-hydroxy-tetrahydrofuran-3-yl]-3-oxo-2-(pyridin-3-yl)-2,3-dihydropyridazine-4-carboxamide]
> 20000 | 50.6 | O=C(NC[C@H](O)C(F)(F)F)c1cc(-c2ccc(Cl)cc2)nn(-c2ccnnc2)c1=O [Example 321, 3-(4-Chlorophenyl)-6-oxo-N-[(2S)-3,3,3-trifluoro-2-hydroxypropyl]-6H-1,4′-bipyridazine-5-carboxamide]
> 20000 | 28.1 | O=C(N[C@H](CO)C1CC1)c1cc(-c2ccc(Cl)cc2)nn(-c2cncc(F)c2)c1=O [Example 259, 6-(4-Chlorophenyl)-N-[(1S)-1-cyclopropyl-2-hydroxyethyl]-2-(5-fluoropyridin-3-yl)-3-oxo-2,3-dihydropyridazine-4-carboxamide]
> 20000 | 1.24 | C[C@H](NC(=O)c1cc(-c2ccc(Cl)cc2)nn(-c2cnsc2)c1=O)C(C)(C)O [Example 209, 6-(4-Chlorophenyl)-N-[(2S)-3-hydroxy-3-methylbutan-2-yl]-3-oxo-2-(1,2-thiazol-4-yl)-2,3-dihydropyridazine-4-carboxamide]
> 20000 | 9.52 | CCC(CO)NC(=O)c1cc(-c2ccc(C)cc2)nn(-c2cnn(C)c2)c1=O (centres unmarked) [Example 4, N-(1-Hydroxybutan-2-yl)-6-(4-methylphenyl)-2-(1-methyl-1H-pyrazol-4-yl)-3-oxo-2,3-dihydropyridazine-4-carboxamide]
> 20000 | 39.3 | O=C(N[C@H]1COC[C@H]1O)c1cc(-c2ccc(OC(F)(F)F)cc2)nn(-c2cccnc2)c1=O (relative stereo) [Example 157, N-[(cis)-4-Hydroxytetrahydrofuran-3-yl]-3-oxo-2-(pyridin-3-yl)-6-[4-(trifluoromethoxy)phenyl]-2,3-dihydropyridazine-4-carboxamide]
> 20000 | 17.9 | C[C@@H](CO)NC(=O)c1cc(-c2ccc(C(F)(F)F)nc2)nn(-c2cnsc2)c1=O [Example 251, N-[(2S)-1-Hydroxypropan-2-yl]-3-oxo-2-(1,2-thiazol-4-yl)-6-[6-(trifluoromethyl)pyridin-3-yl]-2,3-dihydropyridazine-4-carboxamide]
> 20000 | 8.87 | O=C(NC[C@H](O)C(F)(F)F)c1cc(-c2ccc(Cl)cc2)nn(-c2cnoc2)c1=O [Example 235, 6-(4-Chlorophenyl)-2-(1,2-oxazol-4-yl)-3-oxo-N-[(2S)-3,3,3-trifluoro-2-hydroxypropyl]-2,3-dihydropyridazine-4-carboxamide]
> 20000 | 72 | O=C(N[C@H](CO)C(F)(F)F)c1cc(-c2ccc(Cl)cc2)nn(-c2cncnc2)c1=O [Example 271, 6-(4-Chlorophenyl)-3-oxo-2-(pyrimidin-5-yl)-N-[(2R)-1,1,1-trifluoro-3-hydroxypropan-2-yl]-2,3-dihydropyridazine-4-carboxamide]
> 20000 | 4.17 | O=C(N[C@H](CO)C(F)(F)F)c1cc(-c2ccc(C(F)F)cc2)nn(-c2cccnc2)c1=O [Example 127, 6-[4-(Difluoromethyl)phenyl]-3-oxo-2-(pyridin-3-yl)-N-[(2R)-1,1,1-trifluoro-3-hydroxypropan-2-yl]-2,3-dihydropyridazine-4-carboxamide]
> 20000 | 27.5 | O=C(N[C@@H]1CC[C@@H]1O)c1cc(-c2ccc(Cl)cc2)nn(-c2cccnc2)c1=O (relative stereo) [Example 258, 6-(4-Chlorophenyl)-N-cis-2-hydroxycyclobutyl-3-oxo-2-(pyridin-3-yl)-2,3-dihydropyridazine-4-carboxamide]
> 20000 | 0.599 | O=C(N[C@H](CO)C(F)(F)F)c1cc(-c2ccc(Cl)cc2)nn(-c2cnsc2)c1=O [Example 198, 6-(4-Chlorophenyl)-3-oxo-2-(1,2-thiazol-4-yl)-N-[(2R)-1,1,1-trifluoro-3-hydroxypropan-2-yl]-2,3-dihydropyridazine-4-carboxamide]
> 20000 | 130 | Cn1cc(-n2nc(-c3ccc(Cl)cc3)cc(C(=O)N[C@@H](CO)C(F)(F)F)c2=O)cn1 [Example 34, (−)-6-(4-Chlorophenyl)-2-(1-methyl-1H-pyrazol-4-yl)-3-oxo-N-[(2S)-1,1,1-trifluoro-3-hydroxypropan-2-yl]-2,3-dihydropyridazine-4-carboxamide]
> 20000 | 2.38 | O=C(NC[C@H](O)C(F)(F)F)c1cc(-c2ccc(C(F)(F)F)cc2)nn(-c2cn[nH]c2)c1=O [Example 216, 3-Oxo-2-(1H-pyrazol-4-yl)-N-[(2S)-3,3,3-trifluoro-2-hydroxypropyl]-6-[4-(trifluoromethyl)phenyl]-2,3-dihydropyridazine-4-carboxamide]
> 20000 | 25.6 | Cn1cc(-n2nc(-c3ccc(OC(F)(F)F)cc3)cc(C(=O)N[C@@H]3COC[C@@H]3O)c2=O)cn1 (single isomer, unassigned; enantiomer 1) [Example 56, N-[(cis)-4-Hydroxytetrahydrofuran-3-yl]-2-(1-methyl-1H-pyrazol-4-yl)-3-oxo-6-[4-(trifluoromethoxy)phenyl]-2,3-dihydropyridazine-4-carboxamide, Enantiomer 1]
> 20000 | 5.04 | Cc1cc(-n2nc(-c3ccc(Cl)cc3)cc(C(=O)NC[C@H](O)C(F)(F)F)c2=O)cs1 [Example 225, 6-(4-Chlorophenyl)-2-(5-methyl-3-thienyl)-3-oxo-N-[(2S)-3,3,3-trifluoro-2-hydroxypropyl]-2,3-dihydropyridazine-4-carboxamide]
> 20000 | 48.1 | O=C(NC(CO)C1CC1)c1cc(-c2ccc(Cl)cc2)nn(-c2cccnc2)c1=O (single isomer, unassigned; (+)) [Example 91, (+)-6-(4-Chlorophenyl)-N-(1-cyclopropyl-2-hydroxyethyl)-3-oxo-2-(pyridin-3-yl)-2,3-dihydropyridazine-4-carboxamide]
> 20000 | 56.9 | O=C(N[C@@H]1CC[C@@H]1O)c1cc(-c2ccc(C(F)(F)F)cc2)nn(-c2cccnc2)c1=O (single isomer, unassigned) [Example 268, (−)-N-cis-2-Hydroxycyclo-butyl-3-oxo-2-(pyridin-3-yl)-6-[4-(trifluoromethyl)phenyl]-2,3-dihydropyridazine-4-carboxamide]
> 20000 | 5.7 | CC(C)(O)C(NC(=O)c1cc(-c2ccc(Cl)cc2)nn(-c2cccnc2)c1=O)C(F)(F)F (single isomer, unassigned; enantiomer 2) [Example 123, 6-(4-Chlorophenyl)-3-oxo-2-(pyridin-3-yl)-N-(1,1,1-trifluoro-3-hydroxy-3-methylbutan-2-yl)-2,3-dihydropyridazine-4-carboxamide, Enantiomer 2]
> 20000 | 81.6 | Cn1cc(-n2nc(-c3ccc(OC(F)(F)F)cc3)cc(C(=O)N[C@@H]3COC[C@H]3O)c2=O)cn1 (single isomer, unassigned; enantiomer 1) [Example 64, N-[(trans)-4-Hydroxytetrahydrofuran-3-yl]-2-(1-methyl-1H-pyrazol-4-yl)-3-oxo-6-[4-(trifluoromethoxy)phenyl]-2,3-dihydropyridazine-4-carboxamide, Enantiomer 1]
> 20000 | 58.4 | O=C(N[C@H]1COC[C@H]1O)c1cc(-c2ccc(Cl)cc2)nn(-c2cccnc2)c1=O (racemic) [Example 171, rac-6-(4-chlorophenyl)-N-[(cis)-4-hydroxytetrahydrofuran-3-yl]-3-oxo-2-(pyridin-3-yl)-2,3-dihydropyridazine-4-carboxamide]
